# Patent publication US20140037642A1, “METHODS AND COMPOSITIONS RELATING TO INHIBITION OF IGF-1R” (AMGEN INC., priority 2011, published 2014)
# Values joined by “and” are separate entries in the source; they are usually repeats but may differ in a detail not shown here. Equal entries are not always repeated. Where two headings read alike, the source gives them in different places.
# Key:
# colorectal cancer (CRC) = conditions: Study Drug 6 mg/kg + panitumumab 6 mg/kg
# Excerpt: Another study was done in subjects with colorectal cancer (CRC).
# [1] = test system: metastatic pancreatic cancer patients; assay: Placebo-controlled, randomized phase 2 study plus gemcitabine; assay type: in vivo, human; conditions: for 6-Month OS Rate (95% CI) / 12-Month OS Rate (95% CI) / Median OS, Months (95% CI) / Median PFS, Months (95% CI): conatumumab 10 mg/kg Q2W or ganitumab 12 mg/kg Q2W; for Stratified HR (95% CI), OS / Stratified HR (95% CI), PFS: versus placebo plus gemcitabine
# Method: The primary endpoint was six month overall survival rate.
# Key inclusion criteria were histologically or cytologically documented metastatic adenocarcinoma of the pancreas, age eighteen years or older, ECOG PS 0 or 1, adequate hematologic, hepatic, renal, and coagulation function, amylase and lipase≦2.0×ULN, adequately controlled type 1 or 2 diabetes (amended during protocol to fasting blood glucose<[…] only), fasting blood glucose≦[…], HbAlc<8%, and written informed consent.
# Key exclusion criteria were uncontrolled cardiac disease and prior chemotherapy or radiation in the adjuvant or metastatic setting.
# [2] = test system: metastatic pancreatic cancer patients; conditions: for OS, HR (95% CI) for one unit increment in logAUCss / PFS, HR (95% CI) for one unit increment in logAUCss: univariate Cox model
# Method: Multivariate analysis was performed to evaluate the effect of exposure on OS and PFS adjusting for potential confounding factors using Cox proportional hazard models with a forward selection technique. All baseline factors were initial candidates in the forward selection model. Only the most statistically significant variables were added to the final model after the forward selection process.
# The effect of exposure on the incidence of selected adverse events (hearing and vestibular disorders, hepatic disorders, hyperglycemia, infusion reaction, neutropenia, rash and skin-related toxicity, thrombocytopenia, and venous embolic and thrombotic events) was summarized with descriptive statistics.
# The effect of exposure on changes in selected laboratory values (aspartate transaminase, alanine transaminase, fasting glucose, total neutrophils, and platelets) was assessed by linear regression.
# [3] = test system: metastatic pancreatic cancer patients; assay: Overall survival in baseline circulating biomarker subgroups of the phase 2 study; assay type: in vivo, human; design: Median OS: unit not given here
# Excerpt: To establish the relationship between levels of these baseline markers and overall survival, a Cox proportional hazard model was used to calculate hazard ratios (HR) using normalized log transformed marker concentrations. This analysis tests the risk of death associated with a unit increase in the normalized log baseline biomarker and this risk is expressed as a hazard ratio. Because of the small sample size, it is difficult to dissect prognostic associations from relationships that are modified by treatment with ganitumab relative to placebo, i.e., predictive. This is because the addition of treatment effect adds a variable to the analysis that compromises the power of the test masking significant predictive relationships that may exist. However even a prognostic relationship identified in this analysis is important because it informs the hypothesized relationship between circulating bioavailable ligands and the adaptation of the tumor to IGF-1R dependent progression, and in turn sensitivity to inhibitors that block IGF-1R or downstream signaling pathways.
# This allows a direct test of the predictive value of using these markers in a dichotomized way to predict OS in pancreatic cancer patients that are treated with inhibitors of IGF-1R.
# To represent these relationships Kaplan-Maier plots were generated that show the OS for the high and low subgroups by plotting the fraction of patients in each sub-group that survive against time.
# non-CRC tumors = conditions: Study Drug 6 mg/kg + panitumumab 6 mg/kg
# [4] = patients with measurable disease at baseline, plus gemcitabine
# [5] = plus gemcitabine, listed as ganitumab
# [6] = Ganitumab and Placebo (logAUCss = 0)
# [7] = multivariate Cox model, ganitumab-treated arm
# [8] = Subject #1, Nerve Sheath, 3 mg/Kg
# [9] = Subject #4, Colorectal, 10 mg/Kg
# [10] = Subject #8, diagnosis Unknown, 1 mg/Kg
# [11] = Subject #10, Adenoid R eye, 20 mg/Kg
# [12] = Subject #11, Carcinoid, 3 mg/Kg
# [13] = Subject #11, Carcinoid, 3 mg/Kg cohort
# [14] = twelve subjects, 1 to 20 mg/kg, RECIST
# Method for tumors in human subjects: Each subject was assigned to one of six dosing cohorts. […] The subjects also received individualized palliative care, as appropriate, to reduce the severity of their symptoms.
# Response to treatment was assessed using the Response Evaluation Criteria in Solid Tumors (RECIST) criteria as described in Therasse et al. 2000, J Natl Cancer Inst. […] Briefly, prior to administration of the first dose, each subject was given a computerized tomography (CT) scan to determine the length of the largest measurable tumor along its longest diameter (“Baseline TM (cm)” in Table 9). CT scans were used to measure the same tumors along the same diameter at certain points after initiation of treatment (“Day X Tumor (cm)” in Table 9). Each such measurement was compared to the baseline tumor measurement for the same subject to calculate the percent increase or decrease in tumor size.
substance,measurement,setting,value
Ganitumab,Wk 8 change (RECIST),colorectal cancer (CRC),−27%
same,Wk 8 change (WHO),colorectal cancer (CRC); CT,−39%
same,Best Overall Response: Confirmed CR - n (%),[1]; [4],0 (0) n (%)
same,Best Overall Response: Confirmed PR - n (%),[1]; [4],4 (10) n (%)
same,Best Overall Response: PD - n (%),[1]; [4],13 (33) n (%)
same,Best Overall Response: SD (Includes Unconfirmed PR) - n (%),[1]; [4],16 (41) n (%)
same,Best Overall Response: Unconfirmed PR - n (%),[1]; [4],0 (0) n (%)
same,Best Overall Response: Unknown - n (%),[1]; [4],6 (15) n (%)
same,rate of SD+PR,[1]; plus gemcitabine,51%
same,6-Month OS Rate (95% CI),[1]; plus gemcitabine,"57% (41, 70)"
same,12-Month OS Rate (95% CI),[1]; plus gemcitabine,"39% (25, 54)"
same,"Median OS, Months (95% CI)",[1]; plus gemcitabine,"8.7 (5.3, 12.2) Months"
same,"Median PFS, Months (95% CI)",[1]; plus gemcitabine,"5.1 (2.8, 5.8) Months"
same,6-Month OS Rate (95% CI),[1]; [5],57%
same,12-Month OS Rate (95% CI),[1]; [5],39%
same,"Median OS, Months (95% CI)",[1]; [5],8.7 Months
same,"Median PFS, Months (95% CI)",[1]; [5],5.1 Months
same,"Stratified HR (95% CI), OS",[1],"0.67 (0.41, 1.12)"
same,"Stratified HR (95% CI), PFS",[1],"0.65 (0.41, 1.04)"
same,"Stratified HR (95% CI), OS",[1]; listed as ganitumab,0.67
same,"Stratified HR (95% CI), PFS",[1]; listed as ganitumab,0.65
same,"OS, HR (95% CI) for one unit increment in logAUCss",[2]; Ganitumab Only,"0.0421 (0.0089, 0.1983)"
same,"PFS, HR (95% CI) for one unit increment in logAUCss",[2]; Ganitumab Only,"0.0611 (0.0160, 0.2327)"
same,"OS, HR (95% CI) for one unit increment in logAUCss",[2]; [6],"0.8288 (0.6978, 0.9845)"
same,"PFS, HR (95% CI) for one unit increment in logAUCss",[2]; [6],"0.8322 (0.7111, 0.9741)"
same,"Log AUCss HR, effect on Overall Survival",[2]; [7],0.0842
same,"Log AUCss HR, effect on Progression Free Survival",[2]; [7],0.1355
same,"Log AUCss Parameter Estimate, effect on Overall Survival",[2]; [7],−2.4742
same,"Log AUCss Parameter Estimate, effect on Progression Free Survival",[2]; [7],−1.9986
same,"difference in median OS, ganitumab treatment arm versus placebo arm",[3]; Free IGF-1 high subgroup,7.59 months
same,Median OS,[3]; IGF-2 High (>=median),368
same,"OS HR, treatment vs placebo",[3]; IGF-2 High (>=median),0.24
same,Median OS,[3]; IGF-2 Low (<median),217.5
same,"OS HR, treatment vs placebo",[3]; IGF-2 Low (<median),0.95
same,Median OS,[3]; IGF-BP1 High (>=median),170
same,"OS HR, treatment vs placebo",[3]; IGF-BP1 High (>=median),0.5
same,"OS HR, treatment vs placebo",[3]; IGF-BP1 Low (<median),0.41
same,Median OS,[3]; IGF-BP2 High (>=median),165
same,"OS HR, treatment vs placebo",[3]; IGF-BP2 High (>=median),0.69
same,Median OS,[3]; IGF-BP2 Low (<median),487
same,"OS HR, treatment vs placebo",[3]; IGF-BP2 Low (<median),0.19
same,Median OS,[3]; IGF-BP3 High (>=median),487
same,"OS HR, treatment vs placebo",[3]; IGF-BP3 High (>=median),0.28
same,Median OS,[3]; IGF-BP3 Low (<median),168
same,"OS HR, treatment vs placebo",[3]; IGF-BP3 Low (<median),0.94
same,Median OS,[3]; IGF-BP4 High (>=median),368
same,"OS HR, treatment vs placebo",[3]; IGF-BP4 High (>=median),0.39
same,Median OS,[3]; IGF-BP4 Low (<median),174.5
same,"OS HR, treatment vs placebo",[3]; IGF-BP4 Low (<median),0.63
same,Median OS,[3]; Total IGF-1 High (>=median),487
same,"OS HR, treatment vs placebo",[3]; Total IGF-1 High (>=median),0.25
same,Median OS,[3]; Total IGF-1 Low (<median),142
same,"OS HR, treatment vs placebo",[3]; Total IGF-1 Low (<median),0.59
same,time to significant symptomatic relief after the first dose,"tumors in human subjects; CR subject, Ewing's sarcoma, 12 mg/kg",two
same,response according to RECIST at day 434,"tumors in human subjects; CR subject, Ewing's sarcoma, 12 mg/kg at 14 day intervals",CR (100% reduction in tumor dimension)
same,"PET scan, uptake of labeled glucose by tumor","tumors in human subjects; CR subject, Ewing's sarcoma, 12 mg/kg, day 50",no detectable uptake of labeled glucose
same,decrease in tumor size from baseline (RECIST),"tumors in human subjects; CR subject, Ewing's sarcoma, 12 mg/kg, day 50, CT scan",78%
same,maximum RECIST tumor dimension reduction,"tumors in human subjects; PR subject, mid gut carcinoid tumor, 3 mg/kg at 14 day intervals",63%
same,RECIST tumor dimension decrease,"tumors in human subjects; PR subject, mid gut carcinoid tumor, 3 mg/kg, after 33 weeks in the trial",48%
same,RECIST tumor dimension,"tumors in human subjects; PR subject, mid gut carcinoid tumor, 3 mg/kg, after 33 weeks in the trial, baseline 13.1 cm",6.8 cm
same,Day 50 Tumor (cm),tumors in human subjects; [8],1.4 cm
same,"Day 50 Tumor, percent change vs baseline",tumors in human subjects; [8],(+27%)
same,Day 50 Tumor (cm),"tumors in human subjects; Subject #2, Prostate, 10 mg/Kg",18.8 cm
same,"Day 50 Tumor, percent change vs baseline","tumors in human subjects; Subject #2, Prostate, 10 mg/Kg",(+21%)
same,Day 50 Tumor (cm),"tumors in human subjects; Subject #3, Ovarian, 20 mg/Kg",18.6 cm
same,"Day 50 Tumor, percent change vs baseline","tumors in human subjects; Subject #3, Ovarian, 20 mg/Kg",(+17%)
same,Day 50 Tumor (cm),tumors in human subjects; [9],45.3 cm
same,"Day 50 Tumor, percent change vs baseline",tumors in human subjects; [9],(+7%)
same,Day 50 Tumor (cm),"tumors in human subjects; Subject #5, Thymus, 1 mg/Kg",10.4 cm
same,"Day 50 Tumor, percent change vs baseline","tumors in human subjects; Subject #5, Thymus, 1 mg/Kg",(+4%)
same,Day 50 Tumor (cm),"tumors in human subjects; Subject #6, Melanoma, 10 mg/Kg",28.4 cm
same,"Day 50 Tumor, percent change vs baseline","tumors in human subjects; Subject #6, Melanoma, 10 mg/Kg",(+1%)
same,Day 50 Tumor (cm),"tumors in human subjects; Subject #7, Adenoid, 1 mg/Kg",30.9 cm
same,"Day 50 Tumor, percent change vs baseline","tumors in human subjects; Subject #7, Adenoid, 1 mg/Kg",(−1%)
same,Day 50 Tumor (cm),tumors in human subjects; [10],18.2 cm
same,"Day 50 Tumor, percent change vs baseline",tumors in human subjects; [10],(−2%)
same,Day 106 Tumor (cm),tumors in human subjects; [10],18.9 cm
same,"Day 106 Tumor, percent change vs baseline",tumors in human subjects; [10],(+2%)
same,Day 162 Tumor (cm),tumors in human subjects; [10],23.2 cm
same,"Day 162 Tumor, percent change vs baseline",tumors in human subjects; [10],(+25%)
same,Day 50 Tumor (cm),"tumors in human subjects; Subject #9, Breast, 20 mg/Kg",4.7 cm
same,"Day 50 Tumor, percent change vs baseline","tumors in human subjects; Subject #9, Breast, 20 mg/Kg",(−2%)
same,Day 50 Tumor (cm),tumors in human subjects; [11],35.2 cm
same,"Day 50 Tumor, percent change vs baseline",tumors in human subjects; [11],(−9%)
same,Day 50 Tumor (cm),tumors in human subjects; [12],14 cm
same,"Day 50 Tumor, percent change vs baseline",tumors in human subjects; [12],(+7%)
same,Day 106 Tumor (cm),tumors in human subjects; [12],11 cm
same,"Day 106 Tumor, percent change vs baseline",tumors in human subjects; [12],(−16%)
same,Day 169 Tumor (cm),tumors in human subjects; [12],10.6 cm
same,"Day 169 Tumor, percent change vs baseline",tumors in human subjects; [12],(−19%)
same,Day 225 Tumor (cm),tumors in human subjects; [12],8.4 cm
same,"Day 225 Tumor, percent change vs baseline",tumors in human subjects; [12],(−36%)
same,Day 281 Tumor (cm),tumors in human subjects; [13],8.2 cm
same,"Day 281 Tumor, percent change vs baseline",tumors in human subjects; [13],(−37%)
same,Day 338 Tumor (cm),tumors in human subjects; [13],6.8 cm
same,"Day 338 Tumor, percent change vs baseline",tumors in human subjects; [13],(−48%)
same,Day 50 Tumor (cm),"tumors in human subjects; Subject #12, Ewing's, 12 mg/Kg",2.2 cm
same,"Day 50 Tumor, percent change vs baseline","tumors in human subjects; Subject #12, Ewing's, 12 mg/Kg",(−78%)
same,"Day 85 Tumor, percent change vs baseline","tumors in human subjects; Subject #12, Ewing's, 12 mg/Kg",(−100%)
same,Day 85 Tumor (cm),"tumors in human subjects; Subject #12, Ewing's, 12 mg/Kg, listed as Study Drug",0 cm and 0.0 cm
same,number of subjects with a reduction in tumor size of at least 30%,tumors in human subjects; [14],two
same,number of subjects with best response progressive disease (PD),tumors in human subjects; [14],two
same,best response (WHO criteria),non-CRC tumors; subject with a GE Junction tumor,stable disease
same,best response (WHO criteria),non-CRC tumors; subject with a pancreatic tumor,stable disease
same,best response (WHO criteria),non-CRC tumors; subject with a thyroid tumor,progressive disease
